By EC50 is commonly meant the concentration at which the effect is half-maximal.

SMILES strings stand for the structures.

For this assay, the target named is Poly(ADP-ribose) glycohydrolase (Homo sapiens, UniProt Q86W56). Description: Inhibition of human full length PARG using Bt-NAD ribosylated PARP1 substrate after 10 mins by TR-FRET assay. A general note: TR-FRET usually uses a lanthanide donor and a delayed reading to cut background.
Chain of Poly(ADP-ribose) glycohydrolase (Q86W56 whole entry): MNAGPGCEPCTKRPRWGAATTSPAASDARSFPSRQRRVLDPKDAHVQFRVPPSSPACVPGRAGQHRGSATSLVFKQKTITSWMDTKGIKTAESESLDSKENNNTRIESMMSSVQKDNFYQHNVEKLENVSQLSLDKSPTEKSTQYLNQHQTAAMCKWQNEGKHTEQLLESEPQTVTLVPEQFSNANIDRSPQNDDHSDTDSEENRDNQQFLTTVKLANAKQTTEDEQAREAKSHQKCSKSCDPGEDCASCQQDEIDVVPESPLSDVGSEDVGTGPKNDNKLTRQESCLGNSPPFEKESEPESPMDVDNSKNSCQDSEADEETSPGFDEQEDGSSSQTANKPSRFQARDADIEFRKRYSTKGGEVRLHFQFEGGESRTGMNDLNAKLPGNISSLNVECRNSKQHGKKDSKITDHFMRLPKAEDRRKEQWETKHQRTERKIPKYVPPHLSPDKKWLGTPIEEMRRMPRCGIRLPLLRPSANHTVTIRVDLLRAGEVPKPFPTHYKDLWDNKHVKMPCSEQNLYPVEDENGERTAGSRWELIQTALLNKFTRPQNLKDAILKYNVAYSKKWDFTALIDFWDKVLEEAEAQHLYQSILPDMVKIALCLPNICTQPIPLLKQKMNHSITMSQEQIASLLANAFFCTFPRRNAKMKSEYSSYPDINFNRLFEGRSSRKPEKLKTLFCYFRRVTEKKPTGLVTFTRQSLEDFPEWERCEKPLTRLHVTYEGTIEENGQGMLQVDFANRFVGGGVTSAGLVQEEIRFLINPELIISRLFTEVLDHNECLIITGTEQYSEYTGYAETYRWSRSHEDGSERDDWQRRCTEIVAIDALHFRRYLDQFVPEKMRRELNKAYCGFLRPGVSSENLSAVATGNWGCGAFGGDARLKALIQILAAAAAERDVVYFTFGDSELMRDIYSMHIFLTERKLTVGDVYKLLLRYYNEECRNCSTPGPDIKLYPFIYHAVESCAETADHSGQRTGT
With `Cn1c(=O)n(CC2CCCCC2)c(=O)c2cc(S(=O)(=O)NC3(C)CC3)ccc21`, the concentration giving a half-maximal response (EC50) was over 150000 nM. The compound `Cc1cc(Cn2c(=O)c3cc(S(=O)(=O)NC4(C)CC4)ccc3n(C)c2=O)on1` returned an EC50 of 470 nM. `Cn1cncc1Cn1c(=O)c2cc(S(=O)(=O)NC3(C)CC3)ccc2n(C)c1=O` had a concentration giving a half-maximal response (EC50) of 3300 nM.

With `Cn1c(=O)c2cc(S(=O)(=O)NC(C)(C)C)ccc2n(C)c1=O`, the EC50 was 110000 nM.

`Cc1nc(Cn2c(=O)c3cc(S(=O)(=O)NC4(C)CC4)ccc3n(C)c2=O)cs1` returned an EC50 of 10000 nM. The compound `COc1cccc(Cn2c(=O)n(C)c(=O)c3cc(S(=O)(=O)NC4(C)CC4)ccc32)c1` registered a half-maximal effective concentration (EC50) of 860 nM. Then `O=C1c2ccccc2C(=O)c2cc(S(=O)(=O)NCCO)ccc21`, with over 150000 nM. For the compound `Cc1cc(Cn2c(=O)n(C)c(=O)c3cc(S(=O)(=O)NC4(C)CC4)ccc32)n(C)n1`, the EC50 was determined as 380 nM. Regarding `O=C1c2ccccc2C(=O)c2cc(S(=O)(=O)NC3CCC3)ccc21`, the EC50 was over 50000 nM.

On to `Cn1c(=O)n(Cc2cn[nH]c2)c(=O)c2cc(S(=O)(=O)NC3(C)CC3)ccc21`, for which a half-maximal effect (EC50) was put at 380 nM. In turn, `Cc1nc(C)c(Cn2c(=O)c3cc(S(=O)(=O)NC4(C)CC4)ccc3n(C)c2=O)s1` gave an EC50 of 910 nM. For `Cn1c(=O)c2cc(S(=O)(=O)NC3(C)CC3)ccc2n(Cc2cccc(F)c2)c1=O`, the EC50 came to 1600 nM. The compound `Cc1nnc(Cn2c(=O)c3cc(S(=O)(=O)NC4(C)CC4)ccc3n(C)c2=O)s1` displayed an EC50 of 470 nM. With `Cc1nnc(Cn2c(=O)c3cc(S(=O)(=O)NC4(C)CC4)ccc3n(C)c2=O)o1`, the response was half-maximal at 1800 nM (EC50). With `Cn1nccc1Cn1c(=O)n(C)c(=O)c2cc(S(=O)(=O)NC3(C)CC3)ccc21`, the concentration for a half-maximal effect (EC50) came out at 1200 nM.

As for `Cc1nonc1Cn1c(=O)c2cc(S(=O)(=O)NC3(C)CC3)ccc2n(C)c1=O`, it took 2100 nM to reach a half-maximal effect (EC50). Regarding `Cn1ccc(Cn2c(=O)c3cc(S(=O)(=O)NC4(C)CC4)ccc3n(C)c2=O)n1`, the EC50 came out at 12000 nM. In turn, `Cn1c(=O)c2cc(S(=O)(=O)NC3CC3)ccc2n(C)c1=O` had an EC50 of 11000 nM. As for `Cn1c(=O)n(CC(=O)c2ccncc2)c(=O)c2cc(S(=O)(=O)NC3(C)CC3)ccc21`, the EC50 is 1700 nM. In the case of `N#CCCNS(=O)(=O)c1ccc2c(c1)C(=O)c1ccccc1C2=O`, a half-maximal response (EC50) required 88000 nM. Then `CCNS(=O)(=O)c1ccc2c(c1)c(=O)n(C)c(=O)n2C`, with over 150000 nM; and `Cn1c(=O)n(Cc2csnn2)c(=O)c2cc(S(=O)(=O)NC3(C)CC3)ccc21`, with 2700 nM; and `COCC(C)(C)NS(=O)(=O)c1ccc2c(c1)C(=O)c1ccccc1C2=O`, with over 150000 nM. `COc1ccccc1Cn1c(=O)n(C)c(=O)c2cc(S(=O)(=O)NC3(C)CC3)ccc21` yielded a concentration giving a half-maximal response (EC50) of 3200 nM. Compound `Cc1ncc(Cn2c(=O)c3cc(S(=O)(=O)NC4(C)CC4)ccc3n(C)c2=O)s1` registered an EC50 of 480 nM. The compound `Cn1c(=O)n(Cc2ccsc2)c(=O)c2cc(S(=O)(=O)NC3(C)CC3)ccc21` yielded an EC50 of 20000 nM. `Cn1c(=O)n(CC2CC2)c(=O)c2cc(S(=O)(=O)NC3(C)CC3)ccc21`: the EC50 is 4600 nM.

`Cn1c(=O)n(Cc2cocn2)c(=O)c2cc(S(=O)(=O)NC3(C)CC3)ccc21` displayed a 50% effective concentration (EC50) of 21000 nM. For the compound `Cn1c(=O)n(Cc2ccno2)c(=O)c2cc(S(=O)(=O)NC3(C)CC3)ccc21`, it took 1200 nM to reach a half-maximal effect (EC50). The result for `CCNS(=O)(=O)c1ccc2c(c1)C(=O)c1ccccc1C2=O` reads 110000 nM; that for `Cn1c(=O)n(Cc2cnc(N)s2)c(=O)c2cc(S(=O)(=O)NC3(C)CC3)ccc21`, 480 nM.

Regarding `Cn1c(=O)c2cc(S(=O)(=O)NC3(C)CC3)ccc2n(Cc2ccccc2F)c1=O`, the 50% effective concentration (EC50) was 1400 nM. Then `Cn1cnnc1Cn1c(=O)c2cc(S(=O)(=O)NC3(C)CC3)ccc2n(C)c1=O`, with 3100 nM. Regarding `Cn1c(=O)n(CC2COC2)c(=O)c2cc(S(=O)(=O)NC3(C)CC3)ccc21`, the EC50 was 7000 nM.

Compound `Cn1c(=O)n(Cc2cccnc2)c(=O)c2cc(S(=O)(=O)NC3(C)CC3)ccc21` yielded a concentration giving a half-maximal response (EC50) of 2500 nM.

The values above are taken from ChEMBL document CHEMBL4261639, “Cell-Active Small Molecule Inhibitors of the DNA-Damage Repair Enzyme Poly(ADP-ribose) Glycohydrolase (PARG): Discovery and Optimization of Orally Bioavailable Quinazolinedione Sulfonamides” (J Med Chem, 2018).
